# Molecular target: T1, PfPRMT5 (Plasmodium falciparum, UniProt Q8ID96)
# T1 construct: gene PF3D7_1361000; protein A part cut by TEV, protein C tag kept; associated parasite proteins may co-purify
# T1 sequence (Q8ID96 1-724): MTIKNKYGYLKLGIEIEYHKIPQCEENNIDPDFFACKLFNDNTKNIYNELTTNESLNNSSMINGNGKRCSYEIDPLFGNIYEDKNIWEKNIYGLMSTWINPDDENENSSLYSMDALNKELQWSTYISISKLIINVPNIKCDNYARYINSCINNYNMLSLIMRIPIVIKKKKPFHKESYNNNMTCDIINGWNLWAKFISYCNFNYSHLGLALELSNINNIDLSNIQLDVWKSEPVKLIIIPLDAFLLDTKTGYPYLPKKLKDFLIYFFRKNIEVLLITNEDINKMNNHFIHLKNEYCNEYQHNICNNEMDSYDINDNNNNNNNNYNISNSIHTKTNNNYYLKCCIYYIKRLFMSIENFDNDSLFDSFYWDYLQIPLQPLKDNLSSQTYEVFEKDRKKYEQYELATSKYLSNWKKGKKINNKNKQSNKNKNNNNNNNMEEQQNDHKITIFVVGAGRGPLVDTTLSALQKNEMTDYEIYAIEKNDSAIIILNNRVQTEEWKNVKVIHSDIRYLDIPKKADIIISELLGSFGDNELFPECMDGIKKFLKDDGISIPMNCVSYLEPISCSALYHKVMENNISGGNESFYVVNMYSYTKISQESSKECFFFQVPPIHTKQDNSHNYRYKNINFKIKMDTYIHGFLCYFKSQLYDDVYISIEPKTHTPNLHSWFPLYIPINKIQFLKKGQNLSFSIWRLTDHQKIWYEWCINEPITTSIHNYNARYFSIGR
# Test: MTase-Glo luminescence methyltransferase assay
# Format: biochemical
# Conditions: 30 min pre-incubation at 37 °C, 115 µM PfPRMT5 as printed, 10 µM SAM, 0.1 µM human recombinant mononucleosomes, pH 8.0, 60 min
structure (smiles),measurement,value
Nc1nc2cc(CC[C@H]3C[C@@H](n4ccc5c(N)ncnc54)[C@H](O)[C@@H]3O)ccc2cc1Br [onametostat],% reduction of activity at 1:1 molar ratio PfPRMT5:onametostat,~ 48%

# — publication PMC11459956, “Onametostat, a PfPRMT5 inhibitor, exhibits antimalarial activity to Plasmodium falciparum” (Antimicrobial Agents and Chemotherapy, 2024)
